Laboratory results from patent US7855325B2, “Use of nitric oxide modulators in Agrobacterium-mediated plant transformation” (Monsanto Technology LLC, priority 2003, dated 2010).

What was measured:
[1] = test system: corn immature embryos; test: Follow-up callus induction experiment, embryos on liquid MSW57 medium with L-NMMA or SNAP; format: cell-based; conditions: MSW57 plus 0.1 mM SNAP, 14-d in culture
Protocol: To follow up on this callus induction observation, a new experiment was set up where a typical embryo harvest was done from several ears and the embryos were distributed onto control medium MSW57, MSW57 plus 1.0 mM L-NMMA or 0.1 mM S-nitroso-N-acetylpenicillamine (SNAP, a NO donor compound). In this experiment the embryos were placed on a dark Millipore filter set on top of two pieces of felt.

[2] = test system: corn immature embryos; test: Callus induction and cell proliferation from corn immature embryos on medium with NO modulators; format: cell-based; conditions: 0.01 mM SNAP, compared to other treatments and controls
Protocol: This example describes the use of nitric oxide modulators in Agrobacterium-mediated transformation of corn. Corn callus and embryos, with and without previous inoculation in Agrobacterium, were cultured on medium containing NO donors (0.1 mM SNP and 0.01 mM SNAP), a NO-synthase inhibitor (1 mM L-NMMA), and the enantiomer of the inhibitor as negative control (1 mM D-NMMA, which has no effect on NO-synthase). All chemicals were obtained from EMD Biosciences, Inc. (La Jolla, Calif.). Callus and embryos, with and without previous inoculation in Agrobacterium, cultured on MSW57 (Table 1) were used as additional controls. The increase in the percentage of explants expressing GFP recorded on media with NO donors from Day 3 to Day 6 might be due to compound degradation. […] Limiting nitric oxide (NO) production in immature embryos and callus could increase transient GFP expression.

**Q.** What does the source list for `CC(=O)N[C@H](C(=O)O)C(C)(C)SN=O` (racemic) [SNAP, S-nitroso-N-acetylpenicillamine]?
**A.** embryos with callus induction versus control [1]: more embryos with callus induction than the control; cell proliferation of embryo-derived callus [2]: significantly higher
